Experimental data published in the NIST ThermoML archive (doi:10.1016/j.jct.2018.01.025).
Where “and” joins values, the source holds several entries; their conditions need not be identical. Equal values may be shown once.

Conditions: Liquid; for mass density: Vibrating tube method

CCCC[n+]1cccc(C)c1.O=S(=O)([N-]S(=O)(=O)C(F)(F)F)C(F)(F)F
Conditions | viscosity
278.15 K, 101.33 kPa, Concentric cylinders viscometry | 201 mPa·s
283.15 K, 101.33 kPa, Concentric cylinders viscometry | 146.3 mPa·s
288.13 K, 101.33 kPa, Vibrating wire viscometry | 107.09 mPa·s
288.15 K, 101.33 kPa, Concentric cylinders viscometry | 109.5 mPa·s
292.95 K, 101.33 kPa, Vibrating wire viscometry | 83.24 mPa·s
293.15 K, 101.33 kPa, Concentric cylinders viscometry | 84.1 mPa·s
296.3 K, 101.33 kPa, Vibrating wire viscometry | 71.15 mPa·s
298.15 K, 101.33 kPa, Concentric cylinders viscometry | 65.6 mPa·s
298.25 K, 101.33 kPa, Vibrating wire viscometry | 65 mPa·s and 64.91 mPa·s
300.55 K, 101.33 kPa, Vibrating wire viscometry | 58.21 mPa·s
302.98 K, 101.33 kPa, Vibrating wire viscometry | 52.92 mPa·s
303.15 K, 101.33 kPa, Concentric cylinders viscometry | 52.31 mPa·s
303.15 K, 10000 kPa, Falling or rolling sphere viscometry | 58.6 mPa·s
303.15 K, 15000 kPa, Falling or rolling sphere viscometry | 62.3 mPa·s
303.15 K, 25000 kPa, Falling or rolling sphere viscometry | 70.4 mPa·s
303.15 K, 50000 kPa, Falling or rolling sphere viscometry | 94.7 mPa·s
303.15 K, 75000 kPa, Falling or rolling sphere viscometry | 126.3 mPa·s
307.84 K, 101.33 kPa, Vibrating wire viscometry | 43.69 mPa·s
308.15 K, 101.33 kPa, Concentric cylinders viscometry | 42.36 mPa·s
310.19 K, 101.33 kPa, Vibrating wire viscometry | 40.27 mPa·s
313.15 K, 101.33 kPa, Concentric cylinders viscometry | 35.01 mPa·s
313.15 K, 10000 kPa, Falling or rolling sphere viscometry | 40.1 mPa·s
313.15 K, 15000 kPa, Falling or rolling sphere viscometry | 42.3 mPa·s
313.15 K, 25000 kPa, Falling or rolling sphere viscometry | 47.2 mPa·s
313.15 K, 50000 kPa, Falling or rolling sphere viscometry | 61.7 mPa·s
313.15 K, 75000 kPa, Falling or rolling sphere viscometry | 80.5 mPa·s
313.15 K, 100000 kPa, Falling or rolling sphere viscometry | 104.9 mPa·s
318.15 K, 101.33 kPa, Concentric cylinders viscometry | 29.01 mPa·s
323.15 K, 101.33 kPa, Concentric cylinders viscometry | 24.47 mPa·s
323.15 K, 10000 kPa, Falling or rolling sphere viscometry | 27.2 mPa·s
323.15 K, 15000 kPa, Falling or rolling sphere viscometry | 28.7 mPa·s
323.15 K, 25000 kPa, Falling or rolling sphere viscometry | 32 mPa·s
323.15 K, 50000 kPa, Falling or rolling sphere viscometry | 41.6 mPa·s
323.15 K, 75000 kPa, Falling or rolling sphere viscometry | 53.5 mPa·s
323.15 K, 100000 kPa, Falling or rolling sphere viscometry | 68.5 mPa·s
328.15 K, 101.33 kPa, Concentric cylinders viscometry | 20.87 mPa·s
333.15 K, 101.33 kPa, Concentric cylinders viscometry | 17.97 mPa·s
333.15 K, 10000 kPa, Falling or rolling sphere viscometry | 20 mPa·s
333.15 K, 15000 kPa, Falling or rolling sphere viscometry | 20.8 mPa·s
333.15 K, 25000 kPa, Falling or rolling sphere viscometry | 22.8 mPa·s
333.15 K, 50000 kPa, Falling or rolling sphere viscometry | 29.2 mPa·s
333.15 K, 75000 kPa, Falling or rolling sphere viscometry | 37.2 mPa·s
333.15 K, 100000 kPa, Falling or rolling sphere viscometry | 46.3 mPa·s
338.15 K, 101.33 kPa, Concentric cylinders viscometry | 15.61 mPa·s
343.15 K, 101.33 kPa, Concentric cylinders viscometry | 13.68 mPa·s
343.15 K, 10000 kPa, Falling or rolling sphere viscometry | 14.8 mPa·s
343.15 K, 15000 kPa, Falling or rolling sphere viscometry | 15.7 mPa·s
343.15 K, 25000 kPa, Falling or rolling sphere viscometry | 17.4 mPa·s
343.15 K, 50000 kPa, Falling or rolling sphere viscometry | 21.7 mPa·s
343.15 K, 75000 kPa, Falling or rolling sphere viscometry | 26.7 mPa·s
343.15 K, 100000 kPa, Falling or rolling sphere viscometry | 33.2 mPa·s
348.15 K, 101.33 kPa, Concentric cylinders viscometry | 12.07 mPa·s
353.15 K, 101.33 kPa, Concentric cylinders viscometry | 10.78 mPa·s
353.15 K, 10000 kPa, Falling or rolling sphere viscometry | 11.5 mPa·s
353.15 K, 15000 kPa, Falling or rolling sphere viscometry | 12.1 mPa·s
353.15 K, 25000 kPa, Falling or rolling sphere viscometry | 13.2 mPa·s
353.15 K, 50000 kPa, Falling or rolling sphere viscometry | 16.4 mPa·s
353.15 K, 75000 kPa, Falling or rolling sphere viscometry | 20.2 mPa·s
353.15 K, 100000 kPa, Falling or rolling sphere viscometry | 24.8 mPa·s
358.15 K, 101.33 kPa, Concentric cylinders viscometry | 9.59 mPa·s
363.15 K, 101.33 kPa, Concentric cylinders viscometry | 8.63 mPa·s
368.15 K, 101.33 kPa, Concentric cylinders viscometry | 7.8 mPa·s
373.15 K, 101.33 kPa, Concentric cylinders viscometry | 7.09 mPa·s

101.33 kPa
Conditions | mass density [kg/m3]
278.15 K | 1431.3
283.15 K | 1426.4
288.15 K | 1421.6
293.15 K | 1416.9
298.15 K | 1412.3
303.15 K | 1407.8
308.15 K | 1403.2
313.15 K | 1398.7
318.15 K | 1394.3
323.15 K | 1389.8
328.15 K | 1385.4
333.15 K | 1380.9
338.15 K | 1376.4
343.15 K | 1372
348.15 K | 1367.5
353.15 K | 1362.9
358.15 K | 1358.3
363.15 K | 1353.9
368.15 K | 1349.6
373.15 K | 1345.4
